The values below are quoted from earlier work in patent US4127536A, “Novel tricosapeptides, intermediates therefor and pharmaceutical compositions and methods employing said tricosapeptides” (priority 1977, dated 1978).

The subject of data set [1] is partially purified brain opiate receptor sites. The conditions noted are these: natural peptide.
Data set [2] deals with rat. The conditions noted are these: injected directly into the brain of the rat.

With “H-Tyr-Gly-Gly-Phe-Met-OH [methionine enkephalin]”, the “binding to partially purified brain opiate receptor sites” value in data set [1] was “binds stereo-specifically”. Further, in data set [2], the analgesic activity result is given as “only weak analgesic agent of short duration”.
